Data as given in patent US20160101148A1, “TREATMENT AND PREVENTION OF BACTERIAL SKIN INFECTIONS USING ORITAVANCIN” (priority 2013, published 2016).
Marks after values point to notes of the source that are not given here.

Key:
[1] = SOLO I and SOLO II combined, safety; assay type: in vivo, human
[2] = test system: S. aureus strains (14 mecC MRSA, 2 mecA MRSA, ATCC 29213 MSSA); experiment: In vitro time-kill assays at free peak and free trough concentrations; assay type: cell-based, Staphylococcus aureus
Method: Viable cell count was determined by serial dilution plating, including the use of 25 g/L charcoal suspension to limit antibiotic carryover. […] Time-kill assays were repeated at least twice independently; results presented are from a representative experiment.
Doubling dilution concentrations of comparator agents were likewise chosen to approximate their fCmax and fCmin levels in plasma when administered at approved dosages for complicated skin and skin structure infections, using pharmacokinetic data and protein binding values from their respective package inserts (DAP [Cubicin®]; LZD [Zyvox®]; VAN [Vancocin®]; Table 3).

[3] = cited from earlier work
[4] = Predicted free peak and free trough levels in plasma; assay type: in vivo; settings: non-protein bound drug, representative human dose: oritavancin 1200 mg, vancomycin 1000 mg, daptomycin 4 mg/kg, linezolid 500 mg
Method: ORI concentrations were chosen to approximate free peak (fCmax; defined as the peak concentration of non-protein bound drug) and free trough (fCmin; defined for ORI as the concentration of non-protein bound drug at 24 h) levels in plasma following administration of a 1200 mg dose (Belley et al., 2013 Table 10). ORI protein binding is estimated at approximately 85% in serum from nonclinical species and humans (Arhin et al., 2010). Doubling dilution concentrations of comparator agents were likewise chosen to approximate their fCmax and fCmin levels in plasma when administered at approved dosages for complicated skin and skin structure infections, using pharmacokinetic data and protein binding values from their respective package inserts (DAP [Cubicin®]; LZD [Zyvox®]; VAN [Vancocin®]; Table 3).

[5] = test system: ABSSSI caused by susceptible gram-positive bacteria, including MRSA; experiment: SOLO I and SOLO II combined, efficacy; assay type: in vivo, human; settings: for FDA primary endpoint: Cessation of spread, absence of fever, no rescue antibiotics / ≧20% reduction of lesion area / FDA primary endpoint: Cessation of spread, absence of fever, no rescue antibiotics, number of patients / ≧20% reduction of lesion area, number of patients / % Difference (95% CI), FDA primary endpoint / % Difference (95% CI), ≧20% reduction of lesion area / EMA primary endpoint: Investigator-assessed clinical cure / EMA primary endpoint: Investigator-assessed clinical cure, number of patients / % Difference (95% CI), investigator-assessed clinical cure: SOLO I and SOLO II combined; for FDA primary endpoint: Cessation of spread, absence of fever, no rescue antibiotics / ≧20% reduction of lesion area / FDA primary endpoint: Cessation of spread, absence of fever, no rescue antibiotics, number of patients / ≧20% reduction of lesion area, number of patients / % Difference (95% CI), FDA primary endpoint / % Difference (95% CI), ≧20% reduction of lesion area: ECE; for % Difference (95% CI), FDA primary endpoint / % Difference (95% CI), ≧20% reduction of lesion area / % Difference (95% CI), investigator-assessed clinical cure: oritavancin vs vancomycin; for EMA primary endpoint: Investigator-assessed clinical cure / EMA primary endpoint: Investigator-assessed clinical cure, number of patients / % Difference (95% CI), investigator-assessed clinical cure: PTE
Excerpt: (§1) Complete results were obtained from a phase 3 clinical trial program of oritavancin (SOLO), which investigated the drug for the treatment of acute bacterial skin and skin structure infections (ABSSSI) caused by susceptible gram-positive bacteria, including methicillin-resistant Staphylococcus aureus (MRSA). SOLO I and SOLO II clinical trials were identical multicenter, double-blind, randomized clinical trials.
In microbiologically confirmed MRSA patients, efficacy was similar in both treatment groups; however, a higher proportion of MRSA-infected patients in the oritavancin group achieved the endpoint of greater than or equal to 20% reduction of lesion area at ECE (p value=0.032). Under the Special Protocol Assessment (SPA) agreed with the FDA, the protocols pre-specified that MRSA patients from the SOLO studies would be pooled for the evaluation of efficacy.
The combined SOLO studies represented 1,987 patients in an intent-to-treat population for evaluation of oritavancin in the treatment of ABSSSI in controlled clinical trials and assessed one of the largest subsets of patients with documented MRSA infection (405 patients).

[6] = test system: ABSSSI caused by susceptible gram-positive bacteria, including MRSA; experiment: SOLO II Phase 3 trial, efficacy; assay type: in vivo, human
Excerpt: as §1
In SOLO II, all protocol-specified primary and secondary efficacy endpoints were met. […] The efficacy was similar in the overall population and in those patients with microbiologically confirmed MRSA infections.

[7] = confirmed MRSA, MicroITT, oritavancin n = 204, vancomycin n = 201
[8] = mITT, oritavancin n = 978, vancomycin n = 981
[9] = confirmed MRSA, Microbiological ITT, ECE
[10] = confirmed MRSA, Microbiological ITT, ECE, oritavancin n = 100, vancomycin n = 101
[11] = mITT, ECE, oritavancin n = 503, vancomycin n = 502
[12] = mITT, ECE, oritavancin vs vancomycin

## CN[C@H](CC(C)C)C(=O)N[C@H]1C(=O)N[C@@H](CC(N)=O)C(=O)N[C@H]2C(=O)N[C@H]3C(=O)N[C@H](C(=O)N[C@H](C(=O)O)c4cc(O)cc(O)c4-c4cc3ccc4O)[C@H](O[C@H]3C[C@](C)(N)[C@@H](O)[C@H](C)O3)c3ccc(c(Cl)c3)Oc3cc2cc(c3O[C@@H]2O[C@H](CO)[C@@H](O)[C@H](O)[C@H]2O[C@H]2C[C@](C)(NCc3ccc(-c4ccc(Cl)cc4)cc3)[C@@H](O)[C@H](C)O2)Oc2ccc(cc2Cl)[C@H]1O [Oritavancin, N^DISACC-(4-(4-chlorophenyl)benzyl)A82846B]
[1]
  Patients with adverse events leading to study drug discontinuation: 3.7%
[1]; p=0.002
  Treatment emergent adverse events considered by investigators as related to study drug: 22.2%
[1]; safety population
  Patients reported to experience at least one adverse event: 55.3%
[2]; 57147 (mecC), oritavancin ƒCmax 16 mg/L
  Time to cidality (≧3 log decrease): 5-10 min
[2]; 57147 (mecC), oritavancin ƒCmin 2 mg/L
  Time to cidality (≧3 log decrease): 5-10 min
[2]; 70611 (mecC), oritavancin ƒCmax 16 mg/L
  Time to cidality (≧3 log decrease): ≦5 min
[2]; 70611 (mecC), oritavancin ƒCmin 2 mg/L
  Time to cidality (≧3 log decrease): 5-10 min
[2]; 73348 (mecC), oritavancin ƒCmax 16 mg/L
  Time to cidality (≧3 log decrease): 5-10 min
[2]; 73348 (mecC), oritavancin ƒCmin 2 mg/L
  Time to cidality (≧3 log decrease): 5-10 min
[2]; 73415 (mecC), oritavancin ƒCmax 16 mg/L
  Time to cidality (≧3 log decrease): 5-10 min
[2]; 73415 (mecC), oritavancin ƒCmin 2 mg/L
  Time to cidality (≧3 log decrease): 5-10 min
[2]; 73617 (mecC), oritavancin ƒCmax 16 mg/L
  Time to cidality (≧3 log decrease): 5-10 min
[2]; 73617 (mecC), oritavancin ƒCmin 2 mg/L
  Time to cidality (≧3 log decrease): 10-15 min
[2]; 73829 (mecC), oritavancin ƒCmax 16 mg/L
  Time to cidality (≧3 log decrease): ≦5 min
[2]; 73829 (mecC), oritavancin ƒCmin 2 mg/L
  Time to cidality (≧3 log decrease): 5-10 min
[2]; 75814 (mecC), oritavancin ƒCmax 16 mg/L
  Time to cidality (≧3 log decrease): ≦5 min
[2]; 75814 (mecC), oritavancin ƒCmin 2 mg/L
  Time to cidality (≧3 log decrease): 5-10 min
[2]; 76918 (mecC), oritavancin ƒCmax 16 mg/L
  Time to cidality (≧3 log decrease): 5-10 min
[2]; 76918 (mecC), oritavancin ƒCmin 2 mg/L
  Time to cidality (≧3 log decrease): 5-10 min
[2]; 77431 (mecC), oritavancin ƒCmax 16 mg/L
  Time to cidality (≧3 log decrease): ≦5 min
[2]; 77431 (mecC), oritavancin ƒCmin 2 mg/L
  Time to cidality (≧3 log decrease): 5-10 min
[2]; 77601 (mecC), oritavancin ƒCmax 16 mg/L
  Time to cidality (≧3 log decrease): ≦5 min
[2]; 77601 (mecC), oritavancin ƒCmin 2 mg/L
  Time to cidality (≧3 log decrease): 5-10 min
[2]; 77950 (mecC), oritavancin ƒCmax 16 mg/L
  Time to cidality (≧3 log decrease): ≦5 min
[2]; 77950 (mecC), oritavancin ƒCmin 2 mg/L
  Time to cidality (≧3 log decrease): 5-10 min
[2]; 77964 (mecC), oritavancin ƒCmax 16 mg/L
  Time to cidality (≧3 log decrease): ≦5 min
[2]; 77964 (mecC), oritavancin ƒCmin 2 mg/L
  Time to cidality (≧3 log decrease): 5-10 min
[2]; 78085 (mecC), oritavancin ƒCmax 16 mg/L
  Time to cidality (≧3 log decrease): 5-10 min
[2]; 78085 (mecC), oritavancin ƒCmin 2 mg/L
  Time to cidality (≧3 log decrease): 10-15 min
[2]; 78651 (mecC), oritavancin ƒCmax 16 mg/L
  Time to cidality (≧3 log decrease): 5-10 min
[2]; 78651 (mecC), oritavancin ƒCmin 2 mg/L
  Time to cidality (≧3 log decrease): 10-15 min
[2]; ATCC 29213 (MSSA), oritavancin ƒCmax 16 mg/L
  Time to cidality (≧3 log decrease): 5-10 min
[2]; ATCC 29213 (MSSA), oritavancin ƒCmin 2 mg/L
  Time to cidality (≧3 log decrease): 10-15 min
[2]; ATCC 33591 (mecA), oritavancin ƒCmax 16 mg/L
  Time to cidality (≧3 log decrease): 5-10 min
[2]; ATCC 33591 (mecA), oritavancin ƒCmin 2 mg/L
  Time to cidality (≧3 log decrease): 10-15 min
[2]; ATCC 43300 (mecA), oritavancin ƒCmax 16 mg/L
  Time to cidality (≧3 log decrease): 5-10 min
[2]; ATCC 43300 (mecA), oritavancin ƒCmin 2 mg/L
  Time to cidality (≧3 log decrease): 5-10 min
[3]; protein binding values from Arhin et al., 2010 (oritavancin) and package inserts (comparators)
  Free Fraction: 0.15
[3]; serum from nonclinical species and humans (Arhin et al., 2010)
  Protein binding: approximately 85%
[4]
  Doubling Dilution Concentration Representing Predicted fCmax: 16 mg/L
[5]; confirmed MRSA, MicroITT
  FDA primary endpoint: Cessation of spread, absence of fever, no rescue antibiotics: 81.4%
  ≧20% reduction of lesion area: 93.1%
  % Difference (95% CI), FDA primary endpoint: 0.8 (−6.9, 8.4) %
  EMA primary endpoint: Investigator-assessed clinical cure: 83.3%
  % Difference (95% CI), investigator-assessed clinical cure: −0.7 (−7.9, 6.4) %
[5]; [7]
  FDA primary endpoint: Cessation of spread, absence of fever, no rescue antibiotics, number of patients: 166
  ≧20% reduction of lesion area, number of patients: 190
  EMA primary endpoint: Investigator-assessed clinical cure, number of patients: 170
[5]; confirmed MRSA, MicroITT, p value = 0.032
  % Difference (95% CI), ≧20% reduction of lesion area: 6.1 (0.5, 11.6)* %
[5]; mITT
  FDA primary endpoint: Cessation of spread, absence of fever, no rescue antibiotics: 81.2%
  ≧20% reduction of lesion area: 86.4%
  % Difference (95% CI), FDA primary endpoint: 0.2 (−3.3, 3.7) %
  % Difference (95% CI), ≧20% reduction of lesion area: 2.3 (−0.9, 5.4) %
  EMA primary endpoint: Investigator-assessed clinical cure: 81.2%
  % Difference (95% CI), investigator-assessed clinical cure: 1.0 (−2.5, 4.5) %
[5]; [8]
  FDA primary endpoint: Cessation of spread, absence of fever, no rescue antibiotics, number of patients: 794
  ≧20% reduction of lesion area, number of patients: 845
  EMA primary endpoint: Investigator-assessed clinical cure, number of patients: 794
[5]; combined SOLO trials
  Efficacy versus vancomycin for ECE and PTE endpoints: non-inferior to vancomycin
[6]
  Efficacy versus vancomycin for ECE and PTE endpoints: non-inferior to vancomycin
[6]; [9]
  FDA primary endpoint: Cessation of spread, absence of fever, no rescue antibiotics: 82.0%
  ≧20% reduction of lesion area: 96.0%
[6]; [10]
  FDA primary endpoint: Cessation of spread, absence of fever, no rescue antibiotics, number of patients: 82
  ≧20% reduction of lesion area, number of patients: 96
[6]; confirmed MRSA, Microbiological ITT, PTE
  EMA primary endpoint: Investigator-assessed clinical cure: 84.0%
[6]; confirmed MRSA, Microbiological ITT, PTE, oritavancin n = 100, vancomycin n = 101
  EMA primary endpoint: Investigator-assessed clinical cure, number of patients: 84
[6]; mITT, ECE
  FDA primary endpoint: Cessation of spread, absence of fever, no rescue antibiotics: 80.1%
  ≧20% reduction of lesion area: 85.9%
[6]; [11]
  FDA primary endpoint: Cessation of spread, absence of fever, no rescue antibiotics, number of patients: 403
  ≧20% reduction of lesion area, number of patients: 432
[6]; [12]
  % Difference (95% CI), FDA primary endpoint: −2.7 (−7.5, 2.0) %
  % Difference (95% CI), ≧20% reduction of lesion area: 0.6 (−3.7, 5.0) %
[6]; mITT, PTE
  EMA primary endpoint: Investigator-assessed clinical cure: 82.7%
[6]; mITT, PTE, oritavancin n = 503, vancomycin n = 502
  EMA primary endpoint: Investigator-assessed clinical cure, number of patients: 416
[6]; mITT, PTE, oritavancin vs vancomycin
  % Difference (95% CI), investigator-assessed clinical cure: 2.2 (−2.6, 7.0) %
